Laboratory results as given in ChEMBL document CHEMBL1201862, “PubChem BioAssay data set” (2004).
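Following 48 hours of exposure in 96-well plates, responses at five concentrations were used to interpolate endpoints linearly. GI50: concentration for 50% inhibition of growth.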 Activity calls are given as the source filed them. No stated cut-off is given here; in the data, active = GI50 up to about 1.1 µM and inactive = higher.

Legend:
Experiment in all cases: NCI tumour cell line growth inhibition, 48 h
UACC-62 = test system: UACC-62
A549 = test system: A549
SNB-19 = test system: SNB-19
SK-MEL-28 = test system: SK-MEL-28
NCI-H522 = test system: NCI-H522
Malme-3M = test system: Malme-3M
786-0 = test system: 786-0
SK-MEL-2 = test system: SK-MEL-2
NCI-H23 = test system: NCI-H23
LOX IMVI = test system: LOX IMVI
MCF7 = test system: MCF7
Hs-578T = test system: Hs-578T
OVCAR-5 = test system: OVCAR-5
MDA-MB-435 = test system: MDA-MB-435
NCI-H460 = test system: NCI-H460
HCT-116 = test system: HCT-116
IGROV-1 = test system: IGROV-1
SR = test system: SR
NCI-H226 = test system: NCI-H226
K562 = test system: K562
RPMI-8226 = test system: RPMI-8226
T47D = test system: T47D
SF-539 = test system: SF-539
OVCAR-8 = test system: OVCAR-8
TK-10 = test system: TK-10
SK-OV-3 = test system: SK-OV-3
HOP-62 = test system: HOP-62
ACHN = test system: ACHN
UO-31 = test system: UO-31
HT-29 = test system: HT-29
OVCAR-3 = test system: OVCAR-3
SF-268 = test system: SF-268
M14 = test system: M14
MDA-N = test system: MDA-N
SK-MEL-5 = test system: SK-MEL-5
EKVX = test system: EKVX
HCT-15 = test system: HCT-15
SF-295 = test system: SF-295
HCC 2998 = test system: HCC 2998
MOLT-4 = test system: MOLT-4
HOP-92 = test system: HOP-92
NCI/ADR-RES = test system: NCI/ADR-RES
OVCAR-4 = test system: OVCAR-4
SW-620 = test system: SW-620
MDA-MB-231 = test system: MDA-MB-231
UACC-257 = test system: UACC-257
CCRF-CEM = test system: CCRF-CEM
COLO 205 = test system: COLO 205
CAKI-1 = test system: CAKI-1
KM12 = test system: KM12
DU-145 = test system: DU-145
HL-60 = test system: HL-60
BT-549 = test system: BT-549
PC-3 = test system: PC-3
SN12C = test system: SN12C
RXF 393 = test system: RXF 393
U-251 = test system: U-251
SNB-75 = test system: SNB-75
A498 = test system: A498

In the case of `O=c1cc(-c2ccccc2)[nH]c2ccc(N3CCCCC3)cc12`, the GI50 (UACC-62) is reported as < 0.01 µM (active), the GI50 (A549) is reported as 0.0488 µM (active) and the GI50 (SNB-19) is reported as 0.0347 µM (active). For the same molecule, the GI50 (SK-MEL-28) was 0.0267 µM (active), the GI50 (NCI-H522) was 0.0133 µM (active) and the GI50 (Malme-3M) was > 100 µM (inactive). The GI50 (786-0) was 0.0364 µM (active), the GI50 (SK-MEL-2) was 0.0476 µM (active) and the GI50 (NCI-H23) was 0.023 µM (active). For the same molecule, the GI50 (LOX IMVI) was 0.0465 µM (active), the GI50 (MCF7) was 0.0428 µM (active) and the GI50 (Hs-578T) was < 0.0152 µM (active). For the same molecule, the GI50 (OVCAR-5) was 4.35 µM (inactive), the GI50 (MDA-MB-435) was < 0.01 µM (active) and the GI50 (NCI-H460) was 0.0306 µM (active). The GI50 (HCT-116) was < 0.0184 µM (active), the GI50 (IGROV-1) was 0.0506 µM (active) and the GI50 (SR) was 0.0172 µM (active). The GI50 (NCI-H226) was 0.0193 µM (active), the GI50 (K562) was < 0.0129 µM (active) and the GI50 (RPMI-8226) was 0.0333 µM (active). The GI50 (T47D) was > 100 µM (inactive), the GI50 (SF-539) was < 0.0159 µM (active) and the GI50 (OVCAR-8) was 0.0462 µM (active). For the same molecule, the GI50 (TK-10) was 0.998 µM (active), the GI50 (SK-OV-3) was 0.0368 µM (active) and the GI50 (HOP-62) was 0.0305 µM (active). The GI50 (ACHN) was 0.048 µM (active), the GI50 (UO-31) was > 10 µM (inactive) and the GI50 (HT-29) was 0.0566 µM (active). The GI50 (OVCAR-3) was 0.0166 µM (active), the GI50 (SF-268) was 0.228 µM (active) and the GI50 (M14) was 0.0166 µM (active). The GI50 (MDA-N) was < 0.01 µM (active), the GI50 (SK-MEL-5) was < 0.0153 µM (active) and the GI50 (EKVX) was > 100 µM (inactive). The GI50 (HCT-15) was 0.0329 µM, the GI50 (SF-295) was < 0.0117 µM (active) and the GI50 (HCC 2998) was < 0.0224 µM (active). For the same molecule, the GI50 (MOLT-4) was 0.0605 µM (active), the GI50 (HOP-92) was < 0.01 µM (active) and the GI50 (NCI/ADR-RES) was 0.0204 µM (active). The GI50 (OVCAR-4) was > 100 µM (inactive), the GI50 (SW-620) was 0.0468 µM (active) and the GI50 (MDA-MB-231) was 0.0501 µM (active). The GI50 (UACC-257) was 42.6 µM (inactive), the GI50 (CCRF-CEM) was < 0.0161 µM (active) and the GI50 (COLO 205) was 0.017 µM (active). For the same molecule, the GI50 (CAKI-1) was < 0.0221 µM (active), the GI50 (KM12) was 0.0142 µM (active) and the GI50 (DU-145) was 0.0468 µM (active). The GI50 (HL-60) was < 0.0126 µM (active), the GI50 (BT-549) was 40.9 µM (inactive) and the GI50 (PC-3) was 0.0297 µM (active). For the same molecule, the GI50 (SN12C) was 0.0373 µM (active), the GI50 (RXF 393) was < 0.0191 µM (active) and the GI50 (U-251) was 0.0171 µM (active).
`COC(=O)c1ccc(Oc2nc3ccc(C(F)(F)F)cc3nc2-c2ccccc2)cc1` was tested, and the GI50 (UACC-62) was > 100 µM (inactive), the GI50 (A549) was > 100 µM (inactive) and the GI50 (SK-MEL-28) was > 100 µM (inactive). The GI50 (NCI-H522) was 94.6 µM (inactive), the GI50 (Malme-3M) was > 100 µM (inactive) and the GI50 (786-0) was > 100 µM (inactive). The GI50 (NCI-H23) was > 100 µM (inactive), the GI50 (LOX IMVI) was > 100 µM (inactive) and the GI50 (MCF7) was 24.9 µM (inactive). For the same molecule, the GI50 (Hs-578T) was > 100 µM (inactive), the GI50 (OVCAR-5) was > 100 µM (inactive) and the GI50 (MDA-MB-435) was > 100 µM (inactive). The GI50 (NCI-H460) was 83.2 µM (inactive), the GI50 (HCT-116) was > 100 µM (inactive) and the GI50 (IGROV-1) was > 100 µM (inactive). For the same molecule, the GI50 (SR) was 92.3 µM (inactive), the GI50 (NCI-H226) was > 100 µM (inactive) and the GI50 (K562) was 60.8 µM (inactive). The GI50 (RPMI-8226) was 62.8 µM (inactive), the GI50 (T47D) was 56.2 µM (inactive) and the GI50 (SF-539) was > 100 µM (inactive). The GI50 (OVCAR-8) was > 100 µM (inactive), the GI50 (TK-10) was > 100 µM (inactive) and the GI50 (SK-OV-3) was > 100 µM (inactive). For the same molecule, the GI50 (HOP-62) was > 100 µM (inactive), the GI50 (ACHN) was 56.9 µM (inactive) and the GI50 (UO-31) was > 100 µM (inactive). For the same molecule, the GI50 (HT-29) was > 100 µM (inactive), the GI50 (OVCAR-3) was > 100 µM (inactive) and the GI50 (SF-268) was > 100 µM (inactive). For the same molecule, the GI50 (MDA-N) was > 100 µM (inactive), the GI50 (SK-MEL-5) was > 100 µM (inactive) and the GI50 (EKVX) was 55.5 µM (inactive). For the same molecule, the GI50 (HCT-15) was over 100 µM, the GI50 (SF-295) was > 100 µM (inactive) and the GI50 (HCC 2998) was > 100 µM (inactive). The GI50 (MOLT-4) was 66.4 µM (inactive), the GI50 (HOP-92) was > 100 µM (inactive) and the GI50 (SNB-75) was > 100 µM (inactive). The GI50 (NCI/ADR-RES) was > 100 µM (inactive), the GI50 (OVCAR-4) was > 100 µM (inactive) and the GI50 (SW-620) was > 100 µM (inactive). The GI50 (MDA-MB-231) was > 100 µM (inactive), the GI50 (UACC-257) was > 100 µM (inactive) and the GI50 (A498) was > 100 µM (inactive). The GI50 (CCRF-CEM) was > 100 µM (inactive), the GI50 (COLO 205) was > 100 µM (inactive) and the GI50 (CAKI-1) was > 100 µM (inactive). For the same molecule, the GI50 (KM12) was > 100 µM (inactive), the GI50 (DU-145) was > 100 µM (inactive) and the GI50 (HL-60) was > 100 µM (inactive). For the same molecule, the GI50 (BT-549) was > 100 µM (inactive), the GI50 (PC-3) was > 100 µM (inactive) and the GI50 (SN12C) was > 100 µM (inactive). The GI50 (RXF 393) was 74.5 µM (inactive) and the GI50 (U-251) was > 100 µM (inactive).
